One test has as its target T1, cloned rat H3 receptors (Rattus norvegicus, UniProt Q9QYN8).
T1 construct: expressed in transfected cells
As to the kind of experiment: H3 Receptor Binding (Rat).

For test [1], the target named is T2, human H3 receptor (Homo sapiens, UniProt Q9Y5N1). The test is described as follows: H3 Receptor Binding (Human) Method 2, [125I]-iodoproxyfan competitive radioligand binding. Further details: expressed in transfected cells.
For test [2], the target named is T2, human H3 receptor. The test is described as follows: Cyclic AMP Accumulation (human H3 reporter subline). Conditions: SK-N-MC subline with reporter construct and human H3 receptor; free base or trifluoroacetate salt; average; read-out: Human pA2 (converted). The format is cell-based. Further details: expressed in transfected cells; host or cells: SK-N-MC sublines with a reporter construct.
Experimental: Sublines of SK-N-MC cells were created that expressed a reporter construct and either the human or rat H3 receptor. […] Compounds were tested in their free base or trifluoroacetate salt forms.

For another test, the target named is T3, rat H3 receptor (Rattus norvegicus, UniProt Q9QYN8).
T3 construct: expressed in transfected cells; host or cells: SK-N-MC sublines with a reporter construct
T3 sequence (Q9QYN8 whole entry): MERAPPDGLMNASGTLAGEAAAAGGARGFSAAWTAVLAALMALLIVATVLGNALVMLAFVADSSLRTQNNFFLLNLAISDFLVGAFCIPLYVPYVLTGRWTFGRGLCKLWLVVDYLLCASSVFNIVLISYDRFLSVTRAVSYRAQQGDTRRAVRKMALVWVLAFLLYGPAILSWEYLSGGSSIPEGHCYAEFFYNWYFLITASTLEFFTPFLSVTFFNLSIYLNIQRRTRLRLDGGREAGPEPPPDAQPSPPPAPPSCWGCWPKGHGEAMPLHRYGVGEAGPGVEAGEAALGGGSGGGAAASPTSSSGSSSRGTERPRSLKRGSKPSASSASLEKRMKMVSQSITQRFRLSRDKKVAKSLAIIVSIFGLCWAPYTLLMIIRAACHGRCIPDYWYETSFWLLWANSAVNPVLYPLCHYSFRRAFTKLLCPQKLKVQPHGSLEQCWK
As to the kind of experiment: Cyclic AMP Accumulation (rat H3 reporter subline). The format is cell-based. Particulars: SK-N-MC subline with reporter construct and rat H3 receptor; free base or trifluoroacetate salt; average; read-out: Rat pA2 (converted).

In test [3] the target is T4, cloned human H3 receptors (Homo sapiens, UniProt Q9Y5N1).
T4 construct: expressed in transfected cells
T4 sequence (Q9Y5N1 whole entry): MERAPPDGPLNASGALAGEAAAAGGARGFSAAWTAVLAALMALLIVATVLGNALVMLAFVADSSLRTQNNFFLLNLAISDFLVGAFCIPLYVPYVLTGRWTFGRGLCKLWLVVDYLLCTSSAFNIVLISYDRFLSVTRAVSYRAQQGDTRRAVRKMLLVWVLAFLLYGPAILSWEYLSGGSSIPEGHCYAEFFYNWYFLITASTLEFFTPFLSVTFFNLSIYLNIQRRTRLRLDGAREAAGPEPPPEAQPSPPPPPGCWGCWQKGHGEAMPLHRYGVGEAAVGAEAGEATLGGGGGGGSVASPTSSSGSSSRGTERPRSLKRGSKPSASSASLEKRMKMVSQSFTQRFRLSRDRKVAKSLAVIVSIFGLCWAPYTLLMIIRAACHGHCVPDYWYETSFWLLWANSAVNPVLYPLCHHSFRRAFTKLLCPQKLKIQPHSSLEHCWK
The test is described as follows: H3 Receptor Binding (Human) Method 1. Particulars: receptor stably expressed in SK-N-MC cells, free base forms, average of results.

Molecules are shown by their SMILES. Read-outs that look alike come from different tables or passages of the source.

Broadly, the Ki is a measure of affinity in units of concentration, obtained from inhibition or displacement.

T2 sequence (Q9Y5N1 whole entry): as above
T1 sequence (Q9QYN8 whole entry): as the sequence (Q9QYN8 whole entry) above
Experimental for cloned rat H3 receptors: Compounds were tested for binding to cloned rat H3 receptors, stably expressed in SK-N-MC cells.
Compounds were tested in their free base or hydrochloride salt forms.

For `Cc1cc(O[C@@H]2CN[C@@H](C(=O)N3CCCN(C4CCC4)CC3)C2)ccc1Cl` [Example 72, (2R,4S)-4-(4-Chloro-3-methyl-phenoxy)-2-(4-cyclobutyl-[1,4]diazepane-1-carbonyl)-pyrrolidine], the Ki on cloned rat H3 receptors (receptor stably expressed in SK-N-MC cells, free base or hydrochloride salt, average of results, read-out: Rat H3 Ki) worked out at 36 nM; at human H3 receptor [1], 3 nM. The Kb on human H3 receptor [2] is 1.02 nM; on rat H3 receptor it was 4.9 nM.
In the case of `CSc1ccc(O[C@H]2CN[C@H](C(=O)N3CCCN(C4CCC4)CC3)C2)cc1` [Example 96, (2S,4R)-2-(4-Cyclobutyl-[1,4]diazepane-1-carbonyl)-4-(4-methylsulfanyl-phenoxy)-pyrrolidine], the Ki at cloned rat H3 receptors stood at 84 nM; in test [3], 11 nM. The Kb at human H3 receptor [2] is 20.9 nM; at rat H3 receptor, 112 nM.

The record behind these values is patent US8236792B2, “Substituted pyrrolidine amides as modulators of the histamine H3 receptor” (Janssen Pharmaceutica NV, priority 2008, dated 2012).
